# Measured values from patent US20230192895A1, “PHARMACOKINETIC & PHARMACODYNAMIC MODEL FOR DETERMINING EFFECTIVE DOSE OF ANTI-TICAGRELOR ANTIBODY” (PhaseBio Pharmaceuticals, Inc., priority 2021, published 2023).
# B1: PB2452: recombinant human IgG1λ monoclonal Fab antibody fragment that binds specifically to ticagrelor and TAM (antibody, listed as Homo sapiens)
# heavy: QVQLQESGAEVKKPGSSVRVSCKASGGTFDSYSIHWVRQAPGQGLEWMGGIIPAFGTLSSAQDFQARVTISADKSTSTAYMELSGLRSEDTAVYYCARGSFDYYFWSASHPPNDALAIWGQGTLVTVSSASTKGPSVFPLAPSSKSTSGGTAALGCLVKDYFPEPVTVSWNSGALTSGVHTFPAVLQSSGLYSLSSVVTVPSSSLGTQTYICNVNHKPSNTKVDKRVEPKSCDK
# light: QSVVTQPPSVSAAPGQKVTISCSGSNSDIGNNYVSWYQQLPGTAPKLLIYDNNKRPSGIPDRFSGSKSGTSATLAITGLQAGDEADYYCGTWLYDRAVGLFGGGTKVTVLGQPKAAPSVTLFPPSSEELQANKATLVCLISDFYPGAVTVAWKADSSPVKAGVETTTPSKQSNNKYAASSYLSLTPEQWKSHRSYSCQVTHEGSTVEKTVAPTECS
# modifications: PB2452 VH with CH1; PB2452 VL with CL
# Legend:
# [1] = tested on: PB2452 binding to biotinylated ticagrelor; experiment: Selectivity of PB2452 by competition binding with PB2452 to biotinylated ticagrelor; parameters: species or system human
# Text: The chemical starting point for the development of ticagrelor was adenosine triphosphate (ATP), and ticagrelor retains an adenosine-like core.
# [2] = tested on: P2Y12 reactivity units (PRU); experiment: animal or person
# Text: where Base refers to the baseline (prior to administration of Ticagrelor) value. Emaxi, EC50i, and the Hill coefficient (γ) are parameters to be estimated. The same structural model was used for PRU, VASP, and LTA.
# The Emax parameter relating TICA to PRU (as well as VASP and LTA) was fixed to 90%. […] It is anticipated that this parameter value would be large^13 so it was fixed at a large value. […] This value was chosen based on literature^9, 14. Finally, fm was set equal to 0.30.
# For parameters that were to be estimated, most of the prior distributions were uninformative or weakly informative.
# [3] = tested on: P2Y12 reactivity units (PRU); settings: fixed in model, not estimated; cited from earlier work
# [4] = Final population PK/PD model: PK parameters of TICA, TAM, PB2452 and complexes; assay type: in vivo, human
# Protocol: A diagram of the model considered is in FIG. 1. Ticagrelor is dosed orally and passes through 2 transit compartments prior to entering the central compartment. […] PB2452 is dosed IV, and directly enters the central compartment. PB2452 can also diffuse into a peripheral compartment. […] In the model, it is assumed that the complexes are cleared at the same rate as PB2452. Additional compartments for the complex to enter where TICA and TAM return to circulation while PB2452 is removed from the system is also included in the model.
# The expected result would be an increase in PRI/LTA/VASP to baseline (pre-ticagrelor administration) levels. Baseline PRU/LTA/VASP were added in the models observed value from the data for each subject. An ETA term was added to allow for potential measurement error. […] Astrand et al. (2019).
# (§1) The PK parameters associated with this model are in Table 2. […] In the PK/PD model, the parameters associated with the PK of PB2452 (that are not associated with the relationship between PB2452/TICA/TAM) were fixed to these values.
# (§2) To achieve improved fit to the study data, multiple adjustments were made to the model. […] These updates led to significant improvements in the fit of the model to the data.
# The final step in model development was addition of significant covariates. […] Based on the covariate plots for the final model with the covariates included, no other covariates were added.
# [5] = Population PK model of PB2452 alone (two-compartment, Cohorts 1-3); assay type: in vivo, human
# Protocol: Population PK and PK/PD analyses were carried out using NONMEM version 7.4, PDx-Pop version 5.2 and Intel Visual Fortran Compiler version 12 on Microsoft Windows 10 Professional.
# The models described in the following sections are non-linear hierarchical models that were fit using Bayesian Markov Chain Monte-Carlo (MCMC) techniques. If θ and φj represent vectors of individual PK and PD parameters, respectively, then it was assumed that they follow distributions with population parameters Θ and Φ, respectively. The parameters Θ and Φ were then assigned prior distributions according to the prior information available. The Bayesian analysis involved the estimation of the joint distribution of all parameters conditional on the observed data: p(θ, φ, Θ, Φ|PK and PD data), where θ and φ denote collections of all individual specific PK and PD parameters, respectively. Generating random samples from the joint posterior distribution allows the marginal distribution of each parameter to be completely characterized. More details on Bayesian methods in general may be found in (Lunn, Best, Thomas, Wakefield, & Spiegelhalter, 2002).
# The MU referencing technique was utilized in NONMEM (Bauer, 2019). In particular, MU_1 (for example) was set equal to THETA(1). Then a particular model parameter was set equal to EXP(MU_1+ETA(1)). So, THETA represents the population value of the parameter on the log-scale. This usually helps to improve the efficiency (speed of convergence, reduced autocorrelation) of the algorithms (MCMC, but also applies to other “advanced” algorithms available) utilized.
# as §1
# [6] = tested on: P2Y12 receptor-induced platelet aggregation and P2Y12 receptor signaling; experiment: Phase 1 trial: reversal of the antiplatelet effects of ticagrelor (PRU/LTA/VASP); assay type: in vivo, human
# Protocol: This model was developed during the conduct of the first-in-human study and used to inform dosing decisions throughout the study. The model was then updated with final data from the trial and will be used to inform subsequent early-phase clinical trials being conducted.
# The study had 10 cohorts of healthy volunteers.
# Subjects in Cohorts 4-10 were pretreated with ticagrelor for 48 hours. The first dose of ticagrelor was an oral loading dose of 180 mg followed by 90 mg administered orally twice daily for 2 days.
# [7] = read-out: Kd (affinity of PB2452 for TICA and TAM); fixed in model, chosen based on literature; cited from earlier work
# [8] = tested on: metabolism of TICA to TAM; experiment: Final population PK/PD model: metabolism of TICA as a function of PB2452 concentration; assay type: in vivo, human; settings: value is natural log of Emaxf
# Text: as §2
# [9] = 6 g IV bolus, then 6 g over 4 h, then 6 g over 12 h, study subjects pretreated with ticagrelor
# [10] = cohorts 4, 5 and 6 (1, 3, 9 g PB2452 over 30 minutes)
molecule,measurement,setting,value
CCCC(=O)Nc1ncnc2c1ncn2[C@@H]1O[C@@H]2COP(=O)(O)O[C@H]2[C@H]1OC(=O)CCC [bucladesine],Inhibition of PB2452 binding to biotinylated ticagrelor,[1],No inhibition
Nc1ncnc2c1ncn2[C@@H]1O[C@H](CO)[C@@H](O)[C@H]1O [adenosine],Inhibition of PB2452 binding to biotinylated ticagrelor,[1],No inhibition
NS(=O)(=O)c1cc2c(cc1Cl)NC(C1CC3C=CC1C3)NS2(=O)=O (stereo not shown) [cyclothiazide],Inhibition of PB2452 binding to biotinylated ticagrelor,[1],No inhibition
CC(=O)NC[C@H]1CN(c2ccc(N3CCOCC3)c(F)c2)C(=O)O1 [linezolid],Inhibition of PB2452 binding to biotinylated ticagrelor,[1],No inhibition
CNC(=O)c1cnn(-c2nc(N)c3ncn([C@@H]4O[C@H](CO)[C@@H](O)[C@H]4O)c3n2)c1 [regadenoson],Inhibition of PB2452 binding to biotinylated ticagrelor,[1],No inhibition
"Nc1ncnc2c1ncn2[C@@H]1O[C@H](COP(=O)(O)OP(=O)(O)OP(=O)(O)O)[C@@H](O)[C@H]1O [ATP, adenosine triphosphate]",Inhibition of PB2452 binding to biotinylated ticagrelor,[1],No inhibition
CSCCNc1nc(SCCC(F)(F)F)nc2c1ncn2[C@@H]1O[C@H](COP(=O)(O)OP(=O)(O)C(Cl)(Cl)P(=O)(O)O)[C@@H](O)[C@H]1O [cangrelor],Inhibition of PB2452 binding to biotinylated ticagrelor,[1],No inhibition
"CCCSc1nc(N[C@@H]2C[C@H]2c2ccc(F)c(F)c2)c2nnn([C@@H]3C[C@H](OCCO)[C@@H](O)[C@H]3O)c2n1 [TICA, (1S,2S,3R,5S)-3-[7-{[(1R,2S)-2-(3,4-difluorophenyl)cyclopropyl]amino}-5-(propylthio)-3H-[1,2,3]triazolo[4,5-d]pyrimidin-3-yl]-5-(2-ydroxyethoxy)cyclopentane-1,2-diol]",EC50,"[2]; Homo sapiens, read-out: EC50 (Emax model relating uncomplexed analyte to PD measure)",> 20000 nM
same,"THETA1 final estimate; EC50 (nmol/L) = EXP(THETA1), EC50 for relating TICA to PRU",[2]; value is natural log of EC50 in nmol/L,10.6
same,Emax parameter relating TICA to PRU (as well as VASP and LTA),[3],90%
same,Range of uncomplexed TICA expected based on the model,[4]; model-based concentration,less than 2000 nmol/L
same,Metabolism for TICA to TAM corresponding to fm,[4]; when no PB2452 is present,about 23%
O=C1CCc2cc(OCCCCc3nnnn3C3CCCCC3)ccc2N1 [cilostazol],Inhibition of PB2452 binding to biotinylated ticagrelor,[1],No inhibition
CC1(C)C(C=C(Cl)Cl)C1C(=O)OC(C#N)c1ccc(F)c(Oc2ccccc2)c1 (stereo not shown) [cyfluthrin],Inhibition of PB2452 binding to biotinylated ticagrelor,[1],No inhibition
"Nc1ncnc2c1ncn2[C@@H]1O[C@H](COP(=O)(O)OP(=O)(O)O)[C@@H](O)[C@H]1O [ADP, adenosine diphosphate]",Inhibition of PB2452 binding to biotinylated ticagrelor,[1],No inhibition
CCCSc1nc(N[C@@H]2C[C@H]2c2ccc(F)c(F)c2)c2nnn([C@@H]3C[C@H](O)[C@@H](O)[C@H]3O)c2n1 [TAM],"THETA9 final estimate; Emax2 = EXP(THETA9), Emax for relating TAM to PRU",[2]; value is natural log of Emax2,0.0181
CC[C@H](C)C(=O)O[C@H]1C[C@@H](C)C=C2C=C[C@H](C)[C@H](CC[C@@H]3C[C@@H](O)CC(=O)O3)[C@H]21 [lovastatin],Inhibition of PB2452 binding to biotinylated ticagrelor,[1],No inhibition
COC(=O)C1=C(C#N)NC(C)=C(C(=O)OC(C)C)C1c1cccc([N+](=O)[O-])c1 (stereo not shown) [nilvadipine],Inhibition of PB2452 binding to biotinylated ticagrelor,[1],No inhibition
B1,Central volume of distribution,"[5]; IV, Cohorts 1-3",2.86 L
same,Clearance,"[5]; IV, Cohorts 1-3",1.88 L/h
same,Half-life for the distribution phase,"[5]; IV, Cohorts 1-3",0.81 h
same,Half-life for the elimination phase,"[5]; IV, Cohorts 1-3",6.68 h
same,THETA3 final estimate; Q (L/hr) = EXP(THETA3),[5]; value is natural log of Q in L/hr,−0.770
same,THETA2 final estimate; V1 (L) = EXP(THETA2),[5]; value is natural log of V1 in L,1.05
same,THETA4 final estimate; V2 (L) = EXP(THETA4),[5]; value is natural log of V2 in L,1.24
same,Time for which complete reversal was sustained,[6]; [9],20 to 24 h
same,Time from infusion onset to complete reversal of the antiplatelet effects of ticagrelor,[6]; [9],≤ 5 min
same,Effect of higher dose and prolonged infusion on PRU,"[6]; cohort 7 and those that followed (18 g, bolus plus prolonged infusion)",prolonged the increase in PRU
same,Effect on PRU after cessation of infusion,"[6]; cohort 7 and those that followed, despite dose escalation",unexpected loss of effect was observed post-cessation of the drug infusion
same,Duration of early effect on PRU before return to post-TICA levels,[6]; [10],less than two
same,Early effect on PRU,[6]; [10],the PRU values were increased close to values before TICA was administered
same,THETA4 final estimate; Ktr (hr^−1) = EXP(THETA4 + THETA13*(LOG(WT) − 4.35)),"[4]; value is natural log of Ktr, rate at which PB2452-TICA and PB2452-TAM complexes move through the added compartments",−1.22
same,Kd,[7],0.018 nM
same,"THETA6 final estimate; Emaxf = EXP(THETA6), Emax for relating metabolism of TICA to PB2452 concentrations",[8],2.98
